Data: ChEMBL document CHEMBL3885881, “DrugMatrix”

Species on record: Rattus norvegicus
Assay: DrugMatrix - Regimen: Daily Repeat
Assay type: toxicity, organism-based, Sprague-Dawley
Parameters: regimen Daily Repeat, gender Male, age 6-8 weeks
Conditions: in vivo, po, route oral GAVAGE, vehicle .5 % CMC; for ABSOLUTE BASOPHIL / ABSOLUTE EOSINOPHIL / ABSOLUTE LYMPHOCYTE / ABSOLUTE MONOCYTE / ABSOLUTE SEGMENTED NEUTROPHIL / BASOPHIL / EOSINOPHIL / ERYTHROCYTE COUNT / HEMATOCRIT / HEMOGLOBIN / LEUKOCYTE COUNT / LYMPHOCYTE / MEAN CORPUSCULAR HEMOGLOBIN / MEAN CORPUSCULAR HEMOGLOBIN CONCENTRATION / MEAN CORPUSCULAR VOLUME / MONOCYTE / NEUTROPHIL / NUCLEATED RED BLOOD CELLS / PLATELET COUNT: tissue Blood; for ALANINE AMINOTRANSFERASE / ALBUMIN / ALKALINE PHOSPHATASE / ASPARTATE AMINOTRANSFERASE / BLOOD UREA NITROGEN / CARBON DIOXIDE / CHLORIDE / CHOLESTEROL / CREATINE PHOSPHOKINASE / CREATININE / GLUCOSE / LACTATE DEHYDROGENASE / LIPASE / PHOSPHORUS / POTASSIUM / SODIUM / TOTAL BILIRUBIN / TOTAL PROTEIN / URIC ACID: tissue Plasma
[1] = 100 mg/kg, 72 h, dose level Low, time 3 day
[2] = 100 mg/kg, 120 h, dose level Low, time 5 day
[3] = 1500 mg/kg, 72 h, dose level High, time 3 day
[4] = 1500 mg/kg, 120 h, dose level High, time 5 day

CC(C)Oc1ccc2c(=O)c(-c3ccccc3)coc2c1 [IPRIFLAVONE]
ABSOLUTE BASOPHIL [1]: 0 CELLS/uL | ABSOLUTE EOSINOPHIL [1]: 99.33 CELLS/uL | ABSOLUTE LYMPHOCYTE [1]: 13635.33 CELLS/uL | ABSOLUTE MONOCYTE [1]: 415.67 CELLS/uL | ABSOLUTE SEGMENTED NEUTROPHIL [1]: 2916.33 CELLS/uL | BASOPHIL [1]: 0% | EOSINOPHIL [1]: 0.67% | ERYTHROCYTE COUNT [1]: 5.96 x10E6/uL | HEMATOCRIT [1]: 37.1% | HEMOGLOBIN [1]: 14.43 G/DL | LEUKOCYTE COUNT [1]: 17.07 x10E3/uL | LYMPHOCYTE [1]: 80.33% | MEAN CORPUSCULAR HEMOGLOBIN [1]: 24.23 pg | MEAN CORPUSCULAR HEMOGLOBIN CONCENTRATION [1]: 38.93 G/DL | MEAN CORPUSCULAR VOLUME [1]: 62.3 fL | MONOCYTE [1]: 2.33% | NEUTROPHIL [1]: 16.67% | NUCLEATED RED BLOOD CELLS [1]: 0 /100WBC | PLATELET COUNT [1]: 1359 x10E3/uL | ALANINE AMINOTRANSFERASE [1]: 44 u/L | ALBUMIN [1]: 4.53 G/DL | ALKALINE PHOSPHATASE [1]: 342.67 u/L | ASPARTATE AMINOTRANSFERASE [1]: 79.33 u/L | BLOOD UREA NITROGEN [1]: 19.67 mg/dL | CARBON DIOXIDE [1]: 24.33 mmol/L | CHLORIDE [1]: 97.67 MEQ/L | CHOLESTEROL [1]: 61.67 mg/dL | CREATINE PHOSPHOKINASE [1]: 241.33 u/L | CREATININE [1]: 0.23 mg/dL | GLUCOSE [1]: 153.33 mg/dL | LACTATE DEHYDROGENASE [1]: 129.33 u/L | LIPASE [1]: 9.67 u/L | PHOSPHORUS [1]: 11.17 mg/dL | POTASSIUM [1]: 7.3 MEQ/L | SODIUM [1]: 139.57 MEQ/L | TOTAL BILIRUBIN [1]: 0.23 mg/dL | TOTAL PROTEIN [1]: 6.17 G/DL | URIC ACID [1]: 2.23 mg/dL | ABSOLUTE BASOPHIL [2]: 0 CELLS/uL | ABSOLUTE EOSINOPHIL [2]: 57.67 CELLS/uL | ABSOLUTE LYMPHOCYTE [2]: 12897.67 CELLS/uL | ABSOLUTE MONOCYTE [2]: 315.33 CELLS/uL | ABSOLUTE SEGMENTED NEUTROPHIL [2]: 1196 CELLS/uL | BASOPHIL [2]: 0% | EOSINOPHIL [2]: 0.33% | ERYTHROCYTE COUNT [2]: 6.06 x10E6/uL | HEMATOCRIT [2]: 36.3% | HEMOGLOBIN [2]: 14.4 G/DL | LEUKOCYTE COUNT [2]: 14.47 x10E3/uL | LYMPHOCYTE [2]: 89% | MEAN CORPUSCULAR HEMOGLOBIN [2]: 23.8 pg | MEAN CORPUSCULAR HEMOGLOBIN CONCENTRATION [2]: 39.67 G/DL | MEAN CORPUSCULAR VOLUME [2]: 59.93 fL | MONOCYTE [2]: 2% | NEUTROPHIL [2]: 8.67% | NUCLEATED RED BLOOD CELLS [2]: 0.33 /100WBC | PLATELET COUNT [2]: 1112 x10E3/uL | ALANINE AMINOTRANSFERASE [2]: 47 u/L | ALBUMIN [2]: 4.3 G/DL | ALKALINE PHOSPHATASE [2]: 297.33 u/L | ASPARTATE AMINOTRANSFERASE [2]: 91.33 u/L | BLOOD UREA NITROGEN [2]: 15 mg/dL | CARBON DIOXIDE [2]: 25.33 mmol/L | CHLORIDE [2]: 100.67 MEQ/L | CHOLESTEROL [2]: 64 mg/dL | CREATINE PHOSPHOKINASE [2]: 318.67 u/L | CREATININE [2]: 0.19 mg/dL | GLUCOSE [2]: 158.67 mg/dL | LACTATE DEHYDROGENASE [2]: 474.67 u/L | LIPASE [2]: 9 u/L | PHOSPHORUS [2]: 11.83 mg/dL | POTASSIUM [2]: 6.46 MEQ/L | SODIUM [2]: 142.8 MEQ/L | TOTAL BILIRUBIN [2]: 0.13 mg/dL | TOTAL PROTEIN [2]: 5.93 G/DL | URIC ACID [2]: 1.7 mg/dL | ABSOLUTE BASOPHIL [3]: 0 CELLS/uL | ABSOLUTE EOSINOPHIL [3]: 0 CELLS/uL | ABSOLUTE LYMPHOCYTE [3]: 12351.67 CELLS/uL | ABSOLUTE MONOCYTE [3]: 95 CELLS/uL | ABSOLUTE SEGMENTED NEUTROPHIL [3]: 2086.67 CELLS/uL | BASOPHIL [3]: 0% | EOSINOPHIL [3]: 0% | ERYTHROCYTE COUNT [3]: 5.63 x10E6/uL | HEMATOCRIT [3]: 34.7% | HEMOGLOBIN [3]: 13.77 G/DL | LEUKOCYTE COUNT [3]: 14.53 x10E3/uL | LYMPHOCYTE [3]: 85% | MEAN CORPUSCULAR HEMOGLOBIN [3]: 24.47 pg | MEAN CORPUSCULAR HEMOGLOBIN CONCENTRATION [3]: 39.67 G/DL | MEAN CORPUSCULAR VOLUME [3]: 61.63 fL | MONOCYTE [3]: 0.67% | NEUTROPHIL [3]: 14.33% | NUCLEATED RED BLOOD CELLS [3]: 0.33 /100WBC | PLATELET COUNT [3]: 1247.33 x10E3/uL | ALANINE AMINOTRANSFERASE [3]: 44.33 u/L | ALBUMIN [3]: 4.3 G/DL | ALKALINE PHOSPHATASE [3]: 325 u/L | ASPARTATE AMINOTRANSFERASE [3]: 80.33 u/L | BLOOD UREA NITROGEN [3]: 15.33 mg/dL | CARBON DIOXIDE [3]: 27 mmol/L | CHLORIDE [3]: 101 MEQ/L | CHOLESTEROL [3]: 68.67 mg/dL | CREATINE PHOSPHOKINASE [3]: 256.33 u/L | CREATININE [3]: 0.15 mg/dL | GLUCOSE [3]: 149.33 mg/dL | LACTATE DEHYDROGENASE [3]: 181 u/L | LIPASE [3]: 9.33 u/L | PHOSPHORUS [3]: 12.3 mg/dL | POTASSIUM [3]: 6.1 MEQ/L | SODIUM [3]: 143.17 MEQ/L | TOTAL BILIRUBIN [3]: 0.1 mg/dL | TOTAL PROTEIN [3]: 5.67 G/DL | URIC ACID [3]: 1.53 mg/dL | ABSOLUTE BASOPHIL [4]: 0 CELLS/uL | ABSOLUTE EOSINOPHIL [4]: 0 CELLS/uL | ABSOLUTE LYMPHOCYTE [4]: 12219.33 CELLS/uL | ABSOLUTE MONOCYTE [4]: 47.33 CELLS/uL | ABSOLUTE SEGMENTED NEUTROPHIL [4]: 1100 CELLS/uL | BASOPHIL [4]: 0% | EOSINOPHIL [4]: 0% | ERYTHROCYTE COUNT [4]: 5.81 x10E6/uL | HEMATOCRIT [4]: 35.17% | HEMOGLOBIN [4]: 14.03 G/DL | LEUKOCYTE COUNT [4]: 13.37 x10E3/uL | LYMPHOCYTE [4]: 91.33% | MEAN CORPUSCULAR HEMOGLOBIN [4]: 24.23 pg | MEAN CORPUSCULAR HEMOGLOBIN CONCENTRATION [4]: 39.9 G/DL | MEAN CORPUSCULAR VOLUME [4]: 60.63 fL | MONOCYTE [4]: 0.33% | NEUTROPHIL [4]: 8.33% | NUCLEATED RED BLOOD CELLS [4]: 0 /100WBC | PLATELET COUNT [4]: 1215 x10E3/uL | ALANINE AMINOTRANSFERASE [4]: 48 u/L | ALBUMIN [4]: 4.47 G/DL | ALKALINE PHOSPHATASE [4]: 278.33 u/L | ASPARTATE AMINOTRANSFERASE [4]: 72.33 u/L | BLOOD UREA NITROGEN [4]: 14.67 mg/dL | CARBON DIOXIDE [4]: 25.67 mmol/L | CHLORIDE [4]: 102.33 MEQ/L | CHOLESTEROL [4]: 53 mg/dL | CREATINE PHOSPHOKINASE [4]: 231 u/L | CREATININE [4]: 0.16 mg/dL | GLUCOSE [4]: 153 mg/dL | LACTATE DEHYDROGENASE [4]: 157.33 u/L | LIPASE [4]: 9.67 u/L | PHOSPHORUS [4]: 11.6 mg/dL | POTASSIUM [4]: 6.76 MEQ/L | SODIUM [4]: 145.4 MEQ/L | TOTAL BILIRUBIN [4]: 0.2 mg/dL | TOTAL PROTEIN [4]: 6.17 G/DL | URIC ACID [4]: 1.9 mg/dL
